From patent publication US10787448B2, “Indolizino [3,2-C] quinoline-based fluorescent probe” (SEOUL NATIONAL UNIVERSITY R & DB FOUNDATION, priority 2015, dated 2020)
Entries after “also recorded” stand apart in the source; their conditions may differ. Each block holds one compound with its values, some of them ahead of it.

Tests used:
[1] = molecular target: Human Serum Albumin (HSA) (Homo sapiens, UniProt P02768); assay: Protein binding by fluorescence change (FRET, Job's plot, titration, quantum yield)
Description: Using a fluorescence spectrophotometer, it was confirmed whether the indolizino[3,2-c]quinoline compound of the present invention binds to a protein. Specifically, among the indolizino[3,2-c]quinoline compounds, 13 types of compounds with high fluorescence in a Tris buffer (pH 7.5) were added to Bovine Serum Albumin (BSA) and Human Serum Albumin (HSA) to observe a fluorescence change.

[2] = Photostability of fluorescence in aqueous solution or ethanol (natural light, blue light); type: physicochemical; settings: aqueous solution; for stability of fluorescence under irradiation with blue light: blue light for 2 hours; for photostability: fluorescence over time: natural light, up to 6 hours
Description: As a candidate material that can be applied to a fluorescent probe, to confirm how long fluorescence persists in materials with high fluorescence intensity in an aqueous solution among the indolizino[3,2-c]quinoline compounds, photostability according to time in an aqueous solution or ethanol solvent was evaluated as follows.
First, fluorescence of a corresponding material was measured using a cuvette, and the fluorescence per time for the cuvette sample was remeasured until 6 to 7 hours in a natural light state so as to confirm fluorescence stability.
Further, from the above example, when the indolizino[3,2-c]quinoline compounds including the IQ 3, 4, 6 and 8 compounds in which the fluorescence is stably maintained in an aqueous solution for approximately 6 hours are represented by Formula X, some materials in which neither A, B, C nor D ring has a substituent were selected and irradiated with blue light in an aqueous solution, and then a stability experiment was carried out to confirm the maintenance of the fluorescence.

HeLa cells = assay: Cell permeability: fluorescence imaging and live cell confocal imaging; type: cell-based; settings: HeLa cells
Description: HeLa cells were seeded in a 96-well plate and incubated for 24 hours. The cells were treated with the indolizino[3,2-c]quinoline compounds, and incubated at 37° C. under a 5% CO2 condition for 30 minutes. After removal of the medium, the cells were washed with 1×DPBS. The washed cells were fixed with 4% formaldehyde at room temperature for 10 minutes, and washed with 1×DPBS. A cell image was screened using an Operetta HTS imaging system (PerkinElmer).
After HeLa cells were seeded to account for 70 to 80% of the area of a confocal dish (SPL life science) and overnight cultured, the indolizino[3,2-c]quinoline compounds (10 μM) prepared by mixing fresh DMEM after removal of the existing DMEM medium were dispensed, and the cells were incubated for 30 minutes to 1 hour at 37° C. Afterward, if needed, LysoTracker (50 nM) was mixed with DMEM to remove the existing medium and then dispensed to the cells, and the cells were incubated for 30 minutes at 37° C. After incubation, without washing, the cells were examined by a confocal laser microscope (Leica TCS SP8 SMD, Leica, Mannheim, Germany). However, when co-stained with a LysoTracker, the cells were washed with DPBS twice before the microscopy. […]

cells = assay: Co-staining / co-localization with DAPI, MitoTracker or LysoTracker; type: cell-based; settings: for organelle selectivity by co-localization: MitoTracker or LysoTracker
[3] = Analysis of optical characteristics (absorption, fluorescence emission, quantum yield) in solvents; type: physicochemical; settings: for Fluorescence Emission Intensity / Peak emission wavelength λmax em(nm) / Relative fluorescence Emission Intensitynorm: H2O at 2 μM; for Peak emission wavelength λmax em(nm): excited at the longest absorption maxima; for Relative fluorescence Emission Intensitynorm: normalized fluorescence intensity; for Fluorescence quantum yield (Φ): Rhodamine 6G as a standard (Φ = 0.86 in water)
Procedure, shortened: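 Optical properties of indolizinoquinoline compounds were examined in solvents. A 10 mM DMSO stock was diluted into the solvent, and fluorescence emission spectra were recorded at 20° C. on a JASCO FP-6500 spectrofluorometer. Absorption spectra were taken at room temperature on a Perkin Elmer Lamda 20 UV/VIS spectrometer. Fluorescence quantum yield (Φ) was determined.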

[4] = tested on: DNA oligomers (48 bp) tetO sequences; assay: Binding to DNA by fluorescence spectrophotometer; settings: hybridized tetO DNA oligomers added, 1 minute incubation
Description: Using a fluorescence spectrophotometer, it was confirmed whether the indolizino[3,2-c]quinoline compound of the present invention binds to DNA. First, DNA oligomers (48 bp) used in the experiment are tetO sequences, and the base sequences thereof are as follows.
The same molarities of oligomers were mixed while being heated at 95° C. for 5 minutes and cooled to room temperature for 2 hours to hybridize, the fluorescence of each of the indolizino[3,2-c]quinoline compounds of the present invention was measured, a corresponding equivalent of DNA oligomer was added to a cuvette, and then incubated while blocking light for 1 minute to measure fluorescence again.

PDEδ [5] = molecular target: T1, PDEδ (Homo sapiens, UniProt O43924); assay: Titration using fluorescence polarization; type: binding; settings: Table 9
T1 construct: made in house; host or cells: E. coli

PDEδ [6] = molecular target: T1, PDEδ; assay: Titration using fluorescence polarization; type: binding; settings: 0.5 μM compound, PDEδ protein from 0 to 32 μM
Description: To confirm whether the indolizino[3,2-c]quinoline compound can bind to a specific intracellular protein, in the presence of 0.5 μM of the indolizino[3,2-c]quinoline compound, titration was performed by increasing the concentration of the PDEδ protein from 0 to 32 μM to measure a polarization degree.

T1 sequence (O43924 whole entry): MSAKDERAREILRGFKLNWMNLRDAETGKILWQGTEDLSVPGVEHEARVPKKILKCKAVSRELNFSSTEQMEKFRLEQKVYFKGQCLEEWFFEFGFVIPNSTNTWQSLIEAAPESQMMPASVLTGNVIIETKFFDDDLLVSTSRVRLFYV
Sequence of Human Serum Albumin (HSA) (P02768 25-609): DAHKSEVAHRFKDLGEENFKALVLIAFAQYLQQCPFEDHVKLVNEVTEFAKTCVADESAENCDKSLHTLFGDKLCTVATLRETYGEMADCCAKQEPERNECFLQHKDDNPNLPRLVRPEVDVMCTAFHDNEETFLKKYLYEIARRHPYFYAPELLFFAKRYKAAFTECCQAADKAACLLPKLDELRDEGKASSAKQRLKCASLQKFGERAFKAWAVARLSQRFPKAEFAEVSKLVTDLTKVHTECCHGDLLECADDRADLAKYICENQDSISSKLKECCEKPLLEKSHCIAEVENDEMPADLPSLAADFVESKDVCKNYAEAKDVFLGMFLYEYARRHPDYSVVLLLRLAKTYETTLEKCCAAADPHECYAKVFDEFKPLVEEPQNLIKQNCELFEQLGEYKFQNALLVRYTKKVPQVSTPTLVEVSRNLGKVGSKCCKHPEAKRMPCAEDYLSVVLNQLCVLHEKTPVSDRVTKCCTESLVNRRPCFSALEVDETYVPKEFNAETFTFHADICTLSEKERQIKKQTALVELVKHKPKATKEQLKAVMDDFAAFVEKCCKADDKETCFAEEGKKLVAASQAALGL

fluorescence change on binding to HSA [1]: increasing fluorescence intensity
Compound: Cc1ccc(-c2nc3ccccc3c3cc4ccccn4c23)cc1 [IQ 3, 6-(p-tolyl)indolizino[3,2-c]quinoline]
stability of fluorescence under irradiation with blue light [2]: still stably exhibited fluorescence intensity
photostability: fluorescence over time [2]: stably maintained in an aqueous solution up to 6 hours with almost no change

fluorescence change on binding to HSA [1]: increasing fluorescence intensity
Compound: c1ccc(-c2nc3ccccc3c3cc4ccccn4c23)cc1 [IQ 4, 6-phenylindolizino[3,2-c]quinoline]
stability of fluorescence under irradiation with blue light [2]: still stably exhibited fluorescence intensity
photostability: fluorescence over time [2]: stably maintained in an aqueous solution up to 6 hours with almost no change

Compound: c1ccc(-c2nc3ccccc3c3cc4ccccn4c23)nc1 [IQ 5, 6-(pyridin-2-yl)indolizino[3,2-c]quinoline]
stability of fluorescence under irradiation with blue light [2]: still stably exhibited fluorescence intensity

solvent-dependent (environment-sensitive) tendency of the emission [3]: solvatochromic effect
peak emission (λmax) ([3]; ethanol solvent (EtOH)): 511 nm
quantum yield ([3]; in ethanol using coumarin 153 as a standard): 0.816
Compound: COc1ccc(-c2nc3ccccc3c3cc4ccccn4c23)cc1 [IQ 6, 6-(4-methoxyphenyl)indolizino[3,2-c]quinoline]
intracellular molecule recognized (HeLa cells): recognized intracellular RNA
intracellular organelles in which fluorescence is detected (HeLa cells): intensively distributed in cytoplasmic and nucleolus areas
staining pattern compared with conventional dyes (cells): an aspect similar to RNA select for staining RNA
stability of fluorescence under irradiation with blue light [2]: still stably exhibited fluorescence intensity
photostability: fluorescence over time [2]: stably maintained in an aqueous solution up to 6 hours with almost no change

fluorescence change on binding to HSA [1]: increasing fluorescence intensity
Compound: COc1ccc(-c2nc3ccccc3c3cc4ccccn4c23)cc1OC [IQ 8, 6-(3,4-dimethoxyphenyl)indolizino[3,2-c]quinoline]
intracellular organelles in which fluorescence is detected (HeLa cells): stained intensively in the nuclear area
photostability: fluorescence over time [2]: stably maintained in an aqueous solution up to 6 hours with almost no change

fluorescence change on binding to HSA [1]: increasing fluorescence intensity
Compound: COc1cc(OC)cc(-c2nc3ccccc3c3cc4c(C)cccn4c23)c1 [IQ 16, 6-(3,5-dimethoxyphenyl)-11-methylindolizino[3,2-c]quinoline]
intracellular molecule recognized (HeLa cells): recognized DNA
intracellular organelles in which fluorescence is detected (HeLa cells): stained intensively in the nuclear area
staining pattern compared with conventional dyes (cells): staining almost similar to DAPI

change in fluorescence intensity on addition of DNA oligomer [4]: gradually decreased
shift of maximum emission wavelength on addition of DNA oligomer [4]: shorter wavelength
Compound: Cc1cccn2c1cc1c3ccccc3nc(-c3ccco3)c12 [IQ 18, 6-(furan-2-yl)-11-methylindolizino[3,2-c]quinoline]
intracellular organelles in which fluorescence is detected (HeLa cells): distributed in the mitochondria
fluorescence change on light irradiation (cells): increasing fluorescence by receiving light; also recorded: fluorescence is increased
organelle selectivity by co-localization (cells): selectively stains the mitochondria
Pearson's coefficient (cells; co-localization experiment with MitoTracker): ≥ 0.8

Compound: COc1ccc(-c2nc3ccccc3c3cc4cc(/C=C/c5ccccc5)ccn4c23)cc1 [IQ-B19, (E)-6-(4-methoxyphenyl)-10-styrylindolizino[3,2-c]quinoline]
organelle selectivity by co-localization (cells): selectively present in the lysosome
fluorescence (intensity, in words) [3]: high fluorescence in other solvents as well as an aqueous solution

kmax em(nm) (PDEδ [5]): 530 nm
λabs(nm) (PDEδ [5]): 430 nm
Kd (PDEδ [6]): 284 nM
Maximum absorption wavelength λmax abs(nm) [3]: 400 nm
quantum yield (Φ) ([3]; DW, standard Rhodamine 6G): 0.015
quantum yield (Φ) ([3]; EtOH, standard Coumarin 153): 0.636
Fluorescence Emission Intensity [3]: 32.7
Peak emission wavelength λmax em(nm) [3]: 522 nm
Relative fluorescence Emission Intensitynorm [3]: 0.14
Compound: Brc1ccc(-c2nc3ccccc3c3cc4ccccn4c23)cc1 [compound 1]

kmax em(nm) (PDEδ [5]): 526 nm
λabs(nm) (PDEδ [5]): 440 nm
change in fluorescence intensity on addition of DNA oligomer [4]: Decrease in fluorescence intensity
Kd (PDEδ [6]): 491 nM
quantum yield (Φ) ([3]; DW, standard Rhodamine 6G): 0.068
quantum yield (Φ) ([3]; EtOH, standard Coumarin 153): 0.839
Fluorescence Emission Intensity [3]: 59.7
Peak emission wavelength λmax em(nm) [3]: 519 nm
Relative fluorescence Emission Intensitynorm [3]: 0.26
Compound: Cc1ccc(-c2nc3ccccc3c3cc4ccccn4c23)cc1 [compound 3]

kmax em(nm) (PDEδ [5]): 515 nm
λabs(nm) (PDEδ [5]): 430 nm
change in fluorescence intensity on addition of DNA oligomer [4]: Decrease in fluorescence intensity
Kd (PDEδ [6]): 505 nM
quantum yield (Φ) ([3]; DW, standard Rhodamine 6G): 0.039
quantum yield (Φ) ([3]; EtOH, standard Coumarin 153): 0.779
Fluorescence Emission Intensity [3]: 55.0
Peak emission wavelength λmax em(nm) [3]: 519 nm
Relative fluorescence Emission Intensitynorm [3]: 0.24
Compound: c1ccc(-c2nc3ccccc3c3cc4ccccn4c23)cc1 [compound 4]

kmax em(nm) (PDEδ [5]): 515 nm
λabs(nm) (PDEδ [5]): 430 nm
shift of maximum emission wavelength on addition of DNA oligomer [4]: wavelength to longer wavelength
Kd (PDEδ [6]): 729 nM
Absorption coefficient (cm^−1M^−1) [3]: 6547 cm^−1M^−1
Absorption wavelength λex(nm) [3]: 430 nm
Emission wavelength λem(nm) [3]: 515 nm
Maximum absorption wavelength λmax abs(nm) [3]: 430 nm
λem (nm) ([3]; DMF): 469 nm
λem (nm) ([3]; DMSO): 512 nm
λem (nm) ([3]; EtOH): 465 nm
λem (nm) ([3]; EtOH:CHCl3 = 1:5): 466 nm
λem (nm) ([3]; H2O): 511 nm
Fluorescence Emission Intensity [3]: 231.3
Peak emission wavelength λmax em(nm) [3]: 514.5 nm
λem (nm) ([3]; MC): 467 nm
Fluorescence quantum yield (Φ) [3]: 0.121
Relative fluorescence Emission Intensitynorm [3]: 0.99
Compound: COc1ccc(-c2nc3ccccc3c3cc4ccccn4c23)cc1 [compound 6]

kmax em(nm) (PDEδ [5]): 515 nm
λabs(nm) (PDEδ [5]): 430 nm
shift of maximum emission wavelength on addition of DNA oligomer [4]: wavelength to longer wavelength
Kd (PDEδ [6]): 1280 nM
quantum yield (Φ) ([3]; DW, standard Rhodamine 6G): 0.102
quantum yield (Φ) ([3]; EtOH, standard Coumarin 153): 0.652
Fluorescence Emission Intensity [3]: 171.3
Peak emission wavelength λmax em(nm) [3]: 513 nm
Relative fluorescence Emission Intensitynorm [3]: 0.74
Compound: COc1ccc(-c2nc3ccccc3c3cc4ccccn4c23)cc1OC [compound 8]

kmax em(nm) (PDEδ [5]): 515 nm
λabs(nm) (PDEδ [5]): 430 nm
Kd (PDEδ [6]): 1540 nM
Absorption coefficient (cm^−1M^−1) [3]: 11656 cm^−1M^−1
Absorption wavelength λex(nm) [3]: 405 nm
Emission wavelength λem(nm) [3]: 515 nm
λem (nm) ([3]; DMF): 478 nm
λem (nm) ([3]; DMSO): 514 nm
λem (nm) ([3]; EtOH): 465.5 nm
λem (nm) ([3]; EtOH:CHCl3 = 1:5): 467.5 nm
λem (nm) ([3]; H2O): 516 nm
Fluorescence Emission Intensity [3]: 232.9
Peak emission wavelength λmax em(nm) [3]: 514 nm
λem (nm) ([3]; MC): 469 nm
Fluorescence quantum yield (Φ) [3]: 0.053
Relative fluorescence Emission Intensitynorm [3]: 1.00
Compound: c1ccc2c(-c3nc4ccccc4c4cc5ccccn5c34)cccc2c1 [compound 9]

Kd (PDEδ [6]): 425 nM
Compound: c1coc(-c2nc3ccccc3c3cc4ccccn4c23)c1 [compound 42]
